Assays:
[1] = compound: Nc1ncn([C@H]2C[C@H](O)[C@@H](CO)O2)c(=O)n1 [Decitabine]; assay: relative viability (nuclei count vs DMSO), 5 days (fraction); higher = more cells survive
In short: (§1)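 Viability here means nuclei in treated wells divided by nuclei in vehicle wells, reported as the median across plates. Only plates with control CV below 25% and at least one doubling passed. Lung cancer cell lines in 1536-well plates were exposed to five √10-spaced library-drug doses for 5 days and counted from 4× Hoechst images in MetaXpress.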

[2] = compound: O=C(C[C@H]1NCCC[C@@H]1O)Cn1cnc2cc(Br)c(Cl)cc2c1=O (racemic) [Halofuginone]; assay: as above
In short: as §1

Cell Line	relative viability ([1]; 0.04 µM)	relative viability ([1]; 0.1265 µM)	relative viability ([1]; 0.4 µM)	relative viability ([1]; 1.265 µM)	relative viability ([1]; 2 µM, anchor plate)	relative viability ([1]; 4 µM)	relative viability ([2]; 0.001 µM)	relative viability ([2]; 0.003162 µM)	relative viability ([2]; 0.01 µM)	relative viability ([2]; 0.03162 µM)	relative viability ([2]; 0.1 µM)
201T	0.981	1.02	1.04	0.612	0.855	0.953	0.97	0.967	0.952	0.933	0.803
A549	0.858	0.724	0.554	0.174	0.265	0.159	1.03	0.972	0.975	0.766	0.385
A-427	0.668	0.612	0.322	0.322	0.558	0.292	1.02	1.04	0.89	0.989	0.921
ABC-1	0.804	0.97	0.758	0.733	1.12	0.67	0.939	1.02	0.881	0.934	0.77
BEN	0.848	0.853	0.663	0.587	0.771	0.505	0.993	1.05	1.05	1.03	0.65
CAL-12T	0.726	0.843	0.502	0.548	–	0.461	1.03	1.02	1.03	1.12	0.85
COR-L23	0.677	0.629	0.484	0.379	0.441	0.308	1.14	1.02	0.982	0.931	0.268
COR-L 105	0.666	0.798	0.711	0.648	0.696	0.577	1.07	0.955	0.874	0.824	0.711
Calu-6	0.785	0.644	0.383	0.301	–	0.272	1.08	1.04	1	0.633	0.279
ChaGo-K-1	0.933	0.816	0.537	0.482	0.537	0.477	0.995	0.968	0.916	0.967	1.03
EBC-1	0.626	0.456	0.313	0.272	–	0.246	1.06	0.946	0.829	0.496	0.231
EKVX	0.71	0.809	0.647	0.418	0.358	0.375	1.06	0.928	0.989	1	0.858
EMC-BAC-2	–	1.04	0.817	0.726	0.976	0.685	1.07	0.977	1.13	0.926	0.595
EPLC-272H	0.6	0.749	–	0.46	0.386	0.407	1.07	1.02	0.921	1.01	0.889
H3255	0.636	0.857	0.702	0.668	0.657	0.666	1.07	0.99	0.88	0.95	0.992
HARA	0.79	0.818	0.482	0.381	0.519	0.374	0.963	0.927	0.915	1.12	0.827
HCC-15	0.915	0.917	0.419	0.483	0.661	0.508	0.991	1.14	0.981	0.979	0.842
HCC-44	0.924	0.985	0.348	0.545	0.938	0.639	0.988	0.98	0.972	0.953	0.8
HCC-78	0.877	0.816	0.673	0.541	0.706	0.47	1.07	0.961	0.958	1.06	0.879
HCC-366	1.03	0.977	0.546	0.241	0.344	0.155	1.02	1.05	1	0.963	1.01
HCC-827	0.306	0.483	0.398	0.288	0.325	0.377	1.07	1.04	0.976	1.03	0.939

Cell Line	relative viability ([1]; 0.04 µM)	relative viability ([1]; 0.1265 µM)	relative viability ([1]; 0.4 µM)	relative viability ([1]; 1.265 µM)	relative viability ([1]; 2 µM, anchor plate)	relative viability ([1]; 4 µM)	relative viability ([2]; 0.001 µM)	relative viability ([2]; 0.003162 µM)	relative viability ([2]; 0.01 µM)	relative viability ([2]; 0.03162 µM)	relative viability ([2]; 0.1 µM)
HOP-62	0.631	0.472	0.253	0.165	0.212	0.199	0.964	1.11	1.01	0.863	0.69
IA-LM	0.509	0.431	0.272	0.192	–	0.158	0.995	0.94	0.944	0.862	0.354
LC-2-ad	0.832	0.839	0.679	0.411	0.786	0.501	1.11	0.944	0.932	0.978	0.833
LCLC-97TM1	0.425	0.538	0.209	0.134	0.238	0.15	0.913	0.938	1.01	0.995	0.679
LCLC-103H	1.07	1.05	0.917	0.85	0.736	0.805	0.992	1.05	0.994	0.96	0.945
LK-2	0.848	1.03	0.721	0.472	0.302	0.484	0.91	0.927	1.03	1.02	0.741
LOU-NH91	0.781	0.928	0.886	0.83	0.808	0.848	1.03	0.929	0.98	1.06	0.912
LU99A	0.923	0.987	0.981	0.868	0.906	0.773	0.971	0.955	0.928	0.814	0.821
LXF-289	0.778	0.651	0.441	0.345	0.387	0.312	0.98	1.02	0.994	1.01	1
NCI-H23	0.671	0.462	0.341	0.26	0.324	0.293	0.979	0.937	0.868	0.874	0.671
NCI-H322M	0.685	0.821	0.742	0.591	0.699	0.587	0.991	0.956	0.883	0.649	0.478
NCI-H358	0.65	0.456	0.407	0.285	0.229	0.224	0.994	0.892	0.705	0.341	0.142
NCI-H441	0.406	0.381	0.274	0.229	0.25	0.238	1.14	1.12	1.06	0.943	0.596
NCI-H460	0.929	0.938	0.766	0.38	0.495	0.265	1.04	1.03	0.973	0.975	0.571
NCI-H520	0.847	0.811	0.508	0.472	0.517	0.374	1.01	1.07	1.04	0.91	0.635
NCI-H522	0.949	0.938	0.624	0.627	0.686	0.611	1.06	0.924	1.04	1.01	0.769
NCI-H596	0.894	0.871	0.607	0.799	1.04	0.692	1.01	0.965	1.13	0.882	0.549
NCI-H647	0.732	0.817	0.451	0.249	0.403	0.233	1.11	0.971	0.905	0.815	0.599
NCI-H650	0.717	0.596	0.363	0.325	0.31	0.332	1.04	1.01	0.956	0.881	0.719
NCI-H661	0.928	0.944	0.764	0.59	0.565	0.557	1.01	0.962	0.956	0.907	0.85
NCI-H727	0.733	0.658	0.662	0.579	0.903	0.553	1.01	0.88	0.788	0.848	0.65

Cell Line	relative viability ([1]; 0.04 µM)	relative viability ([1]; 0.1265 µM)	relative viability ([1]; 0.4 µM)	relative viability ([1]; 1.265 µM)	relative viability ([1]; 2 µM, anchor plate)	relative viability ([1]; 4 µM)	relative viability ([2]; 0.001 µM)	relative viability ([2]; 0.003162 µM)	relative viability ([2]; 0.01 µM)	relative viability ([2]; 0.03162 µM)	relative viability ([2]; 0.1 µM)
NCI-H838	0.687	0.59	0.434	0.461	0.466	0.314	1	1	0.945	0.765	0.409
NCI-H1299	1.03	1.02	1.02	0.943	–	0.874	1.06	1.06	0.999	0.979	0.886
NCI-H1355	0.768	0.643	0.42	0.338	0.362	0.278	0.989	1.02	0.94	0.941	0.899
NCI-H1395	0.627	0.671	0.729	0.508	0.744	0.528	0.984	0.872	0.809	0.868	0.768
NCI-H1437	0.744	0.73	0.542	0.424	0.557	0.425	0.976	1.02	1.01	0.984	0.845
NCI-H1563	1.07	1.04	1.43	0.986	–	1.03	1.02	1.06	0.885	0.664	0.486
NCI-H1623	0.864	0.749	0.664	0.52	–	0.516	0.947	0.873	0.966	1.07	0.875
NCI-H1648	0.82	0.733	0.474	0.387	0.509	0.366	1.12	0.809	1.06	0.951	1.13
NCI-H1650	0.599	0.657	0.507	0.346	0.422	0.338	1	1.01	0.883	0.811	0.19
NCI-H1651	0.954	1.01	0.961	0.799	0.64	0.767	0.983	1.14	0.966	0.934	0.735
NCI-H1666	0.938	0.9	0.866	0.827	0.764	0.851	0.993	0.936	0.991	1.06	0.991
NCI-H1703	0.772	0.669	0.288	0.332	–	0.246	0.931	0.994	0.886	0.668	0.519
NCI-H1734	0.804	0.829	0.69	0.498	0.517	0.363	1	1.06	0.985	0.984	0.751
NCI-H1755	0.95	0.949	0.848	0.598	0.717	0.515	1.02	1.04	1.01	1.01	0.978
NCI-H1792	0.802	0.857	0.889	0.534	0.526	0.507	0.923	0.897	0.902	0.913	0.633
NCI-H1793	0.715	0.756	0.707	0.498	0.547	0.398	1.01	0.811	0.904	1.04	0.557
NCI-H1915	0.502	0.421	0.329	0.26	0.265	0.292	0.957	1.13	0.959	0.998	0.943
NCI-H1944	0.9	0.869	0.541	0.381	0.429	0.441	0.962	0.951	0.918	0.963	0.922
NCI-H1975	0.594	0.526	0.372	0.352	0.394	0.358	1.05	0.943	0.953	0.692	0.442
NCI-H1993	0.863	0.844	0.929	0.755	0.596	0.757	1.23	0.978	0.893	1.11	0.749
NCI-H2009	0.837	0.706	0.504	0.349	0.387	0.343	1.04	1.18	0.948	0.883	0.597

— the supplement of paper PMC10307832
